Assay results taken from patent US9211310B2, “Use of a Chinese medicine composition in preparing medicaments for treating secondary prevention of myocardial infarction” (TASLY PHARMACEUTICAL GROUP CO., LTD, priority 2010, dated 2015).

System: patients after acute myocardial infarction
Experiment: Life quality, Seattle Angina Questionnaire (SAQ), same clinical trial
Assay type: in vivo, human
Text: 3508 patients who were in accordance with the diagnostic standards of AMI for 28 days to 2 years and differentiated as Qi deficiency and blood stagnation syndrome by TCM were studied. 0.5 g Chinese medicine composition prepared by the method of EXAMPLE 1 (Coded as QSYQ) was administrated half an hour after meal, 3 times per day.
There were 19 questions in the Seattle angina questionnaire (SAQ), including 5 parts: physical limitation (PL), anginal stability (AS), anginal frequency (AF), treatment satisfaction (TS) and disease perception (DP). After being given necessary explanation by doctors, the questions were answered independently by patients.
They included the overall survival time, angina pectoris score, TCM symptom score and life quality score, where angina pectoris score, TCM symptom score and life quality score were evaluated at randomization, in 1st, 3rd, 6th, 9th, 12th month after treatment and 18th month after follow-up.
All evaluation results of SAQ were described during the period of observation, and Wilcoxon rank sum test was used for inter-group comparison.
The evaluation results in the SAQ were depicted in different observations, and inter-group comparison was tested by Wilcoxon Rank-sum test.

For `CC(=O)Oc1ccccc1C(=O)O` [Control group, aspirine], the “SAQ Question 1-9: Other reasons, % of cases” value (Baseline, FAS) was “(5.84%)”, the “SAQ Question 1-9: Other reasons, cases” value (Baseline, FAS) was 99 and the “SAQ Question 1-9: Severely limited, % of cases” value (Baseline, FAS) was “(47.34%)”. The “SAQ Question 1-9: Severely limited, cases” value (Baseline, FAS) was 802, the “SAQ Question 1-9: Slightly limited, % of cases” value (Baseline, FAS) was “(8.56%)” and the “SAQ Question 1-9: Slightly limited, cases” value (Baseline, FAS) was 145. The “SAQ 2nd question: Clearly increased, % of cases” value (Baseline, PP) was “(3.09%)”, the “SAQ 2nd question: Clearly increased, cases” value (Baseline, PP) was 46 and the “SAQ 2nd question: Clearly reduced, % of cases” value (Baseline, PP) was “(12.16%)”. The “SAQ 2nd question: Clearly reduced, cases” value (Baseline, PP) was 181, the “SAQ 2nd question: Same, % of cases” value (Baseline, PP) was “(63.00%)” and the “SAQ 2nd question: Same, cases” value (Baseline, PP) was 938. For the same compound, the “SAQ 2nd question: Slightly increased, % of cases” value (Baseline, PP) was “(6.72%)”, the “SAQ 2nd question: Slightly increased, cases” value (Baseline, PP) was 100 and the “SAQ 2nd question: Slightly reduced, % of cases” value (Baseline, PP) was “(15.04%)”. The “SAQ 2nd question: Slightly reduced, cases” value (Baseline, PP) was 224, the “SAQ 3rd question: 1-2 times per week, % of cases” value (Baseline, PP) was “(15.04%)” and the “SAQ 3rd question: 1-2 times per week, cases” value (Baseline, PP) was 224. For the same compound, the “SAQ 3rd question: 1-3 times per day, % of cases” value (Baseline, PP) was “(6.72%)”, the “SAQ 3rd question: 1-3 times per day, cases” value (Baseline, PP) was 100 and the “SAQ 3rd question: <1 time per week, % of cases” value (Baseline, PP) was “(12.16%)”. For the same compound, the “SAQ 3rd question: <1 time per week, cases” value (Baseline, PP) was 181, the “SAQ 3rd question: No onset, % of cases” value (Baseline, PP) was “(0.00%)” and the “SAQ 3rd question: No onset, cases” value (Baseline, PP) was 0. For the same compound, the “SAQ 3rd question: ≧3 times per week, % of cases” value (Baseline, PP) was “(63.00%)”, the “SAQ 3rd question: ≧3 times per week, cases” value (Baseline, PP) was 938 and the “SAQ 3rd question: ≧4 times per day, % of cases” value (Baseline, PP) was “(3.09%)”. The “SAQ 3rd question: ≧4 times per day, cases” value (Baseline, PP) was 46, the “SAQ Question 1-3: Mildly limited, number of patients” value (Baseline, PP) was 135 and the “SAQ Question 1-3: Mildly limited, percent of patients” value (Baseline, PP) was “(9.04%)”. For the same compound, the “SAQ Question 1-3: Moderately limited, number of patients” value (Baseline, PP) was 44, the “SAQ Question 1-3: Moderately limited, percent of patients” value (Baseline, PP) was “(2.95%)” and the “SAQ Question 1-3: Not limited, number of patients” value (Baseline, PP) was 985. The “SAQ Question 1-3: Not limited, percent of patients” value (Baseline, PP) was “(65.97%)”, the “SAQ Question 1-3: Other reasons, number of patients” value (Baseline, PP) was 10 and the “SAQ Question 1-3: Other reasons, percent of patients” value (Baseline, PP) was “(0.67%)”. The “SAQ Question 1-3: Severely limited, number of patients” value (Baseline, PP) was 12, the “SAQ Question 1-3: Severely limited, percent of patients” value (Baseline, PP) was “(0.80%)” and the “SAQ Question 1-3: Slightly limited, number of patients” value (Baseline, PP) was 307. The “SAQ Question 1-3: Slightly limited, percent of patients” value (Baseline, PP) was “(20.56%)”, the “SAQ Question 1-4: Mildly limited, number of patients” value (Baseline, PP) was 347 and the “SAQ Question 1-4: Mildly limited, percent of patients” value (Baseline, PP) was “(23.30%)”. For the same compound, the “SAQ Question 1-4: Moderately limited, number of patients” value (Baseline, PP) was 185, the “SAQ Question 1-4: Moderately limited, percent of patients” value (Baseline, PP) was “(12.42%)” and the “SAQ Question 1-4: Not limited, number of patients” value (Baseline, PP) was 414. The “SAQ Question 1-4: Not limited, percent of patients” value (Baseline, PP) was “(27.80%)”, the “SAQ Question 1-4: Other reasons, number of patients” value (Baseline, PP) was 14 and the “SAQ Question 1-4: Other reasons, percent of patients” value (Baseline, PP) was “(0.94%)”. For the same compound, the “SAQ Question 1-4: Severely limited, number of patients” value (Baseline, PP) was 51, the “SAQ Question 1-4: Severely limited, percent of patients” value (Baseline, PP) was “(3.43%)” and the “SAQ Question 1-4: Slightly limited, number of patients” value (Baseline, PP) was 478. For the same compound, the “SAQ Question 1-4: Slightly limited, percent of patients” value (Baseline, PP) was “(32.10%)”, the “SAQ Question 1-5: Mildly limited, number of patients” value (Baseline, PP) was 309 and the “SAQ Question 1-5: Mildly limited, percent of patients” value (Baseline, PP) was “(20.72%)”. For the same compound, the “SAQ Question 1-5: Moderately limited, number of patients” value (Baseline, PP) was 210, the “SAQ Question 1-5: Moderately limited, percent of patients” value (Baseline, PP) was “(14.08%)” and the “SAQ Question 1-5: Not limited, number of patients” value (Baseline, PP) was 473. For the same compound, the “SAQ Question 1-5: Not limited, percent of patients” value (Baseline, PP) was “(31.72%)”, the “SAQ Question 1-5: Other reasons, number of patients” value (Baseline, PP) was 12 and the “SAQ Question 1-5: Other reasons, percent of patients” value (Baseline, PP) was “(0.80%)”. The “SAQ Question 1-5: Severely limited, number of patients” value (Baseline, PP) was 46, the “SAQ Question 1-5: Severely limited, percent of patients” value (Baseline, PP) was “(3.09%)” and the “SAQ Question 1-5: Slightly limited, number of patients” value (Baseline, PP) was 441. The “SAQ Question 1-5: Slightly limited, percent of patients” value (Baseline, PP) was “(29.58%)”, the “SAQ Question 1-9: Mildly limited, % of cases” value (Baseline, PP) was “(14.67%)” and the “SAQ Question 1-9: Mildly limited, cases” value (Baseline, PP) was 213. The “SAQ Question 1-9: Moderately limited, % of cases” value (Baseline, PP) was “(20.73%)”, the “SAQ Question 1-9: Moderately limited, cases” value (Baseline, PP) was 301 and the “SAQ Question 1-9: Not limited, % of cases” value (Baseline, PP) was “(2.27%)”. For the same compound, the “SAQ Question 1-9: Not limited, cases” value (Baseline, PP) was 33, the “SAQ Question 1-9: Other reasons, % of cases” value (Baseline, PP) was “(6.34%)” and the “SAQ Question 1-9: Other reasons, cases” value (Baseline, PP) was 92. The “SAQ Question 1-9: Severely limited, % of cases” value (Baseline, PP) was “(48.55%)”, the “SAQ Question 1-9: Severely limited, cases” value (Baseline, PP) was 705 and the “SAQ Question 1-9: Slightly limited, % of cases” value (Baseline, PP) was “(7.44%)”. For the same compound, the “SAQ Question 1-9: Slightly limited, cases” value (Baseline, PP) was 108 and the “8th question: Dissatisfied, patients (%)” value (FAS, 1 month after treatment) was “(0.34%)”.
